According to patent US6833358B1, “Lacrimal secretion promoters or eye drops for treating keratoconjunctival failure containing as the active ingredient natriuretic peptides” (Santen Pharmaceutical Co., Ltd., priority 1998, dated 2004):
No end group written: not given here.

Test system: Male Japanese white rabbits
Assay: Schirmer test paper method: amount of lacrimal fluid after instillation
Assay type: in vivo, rabbit
Protocol: The Schirmer test paper method, which is used for measurement of an amount of a human lacrimal fluid, is one method of measuring a change in an amount of a lacrimal fluid of a normal animal in instilling a drug. In the present invention, an amount of a lacrimal fluid in instilling the natriuretic peptide was measured by using the Schirmer test paper method, and an effect of the natriuretic peptide on a rate of lacrimal secretion was studied.
Male Japanese white rabbits, body weight; 1.8 to 2.2 kg, were used for the experiment.
The natriuretic peptide (0.56 mg) was dissolved in sterile purified water to prepare a 0.1% solution just before using. This solution is referred to as a solution of a test drug.
The solution of the test drug (50 μl) was instilled into a left eye once. […]
Amounts of the lacrimal fluid were measured using Schirmer test paper with respect to the eye to which the drug was administered and the eye to which no drug was administered before administering the drug and after a prescribed period of time from the instillation. […] One minute later, length of a wet portion (Schirmer value, mm) of the test paper was measured from the fold. […]
The action of the solution of the test drug on the rate of the lacrimal secretion at a time of T hours after the instillation is represented by the increment of the lacrimal fluid (mm) determined by the following equation. […]

## Human CNP-22: C-type natriuretic peptide (human) consisting of 22 amino acids; purchased from Peptide Research Institute (GLSKGCFGLKLDRIGSMSGLGC; ends and bridges not checked; cysteine pairing not given here; UniProt P23582 105-126, looked up)
One hour after administering drug, 0.1% solution, 50 μl instilled once into left eye, vehicle-corrected Schirmer value, average of six samples per group
  Increment of lacrimal fluid (mm): +1.33 mm
rabbits, instillation, result in words
  effect of promoting the lacrimal secretion: excellent effects of promoting the lacrimal secretion
